Molecules are shown by their SMILES.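 Where inhibition never reached the appropriate level, the endpoint shown equals the highest concentration tested. Otherwise, values were interpolated linearly from a five-concentration, 48-hour dose response in 96-well plates. TGI marks complete inhibition of growth.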 Where only a bound is given, the exact number is not on record here.

Among the test systems are EKVX NSCLC; A549 NSCLC; ACHN renal; OVCAR-4 ovarian; SF-268 CNS; MOLT-4 leukemia; HOP-62 NSCLC; HCC-2998 colon; OVCAR-3 ovarian; NCI-H460 lung.
Common to all, as to assay: NCI anticancer screen, dose series, 48 h

In the case of `Cc1cccc2c(N)c3cccc(C(=O)NCC[N+](C)(C)Cc4sc(N5CCOCC5)nc4[N+](=O)[O-])c3nc12`, the TGI in the test with EKVX NSCLC was more than 100 µM; in the test on A549 NSCLC, 2.55 µM; with ACHN renal, 2.28 µM; in the test with OVCAR-4 ovarian, 14.4 µM; in the test with SF-268 CNS, more than 100 µM; in the test on MOLT-4 leukemia, more than 100 µM. In addition, the TGI was 7.77 µM with HOP-62 NSCLC, 3.41 µM in the test with HCC-2998 colon and 14.6 µM in the test on OVCAR-3 ovarian.
For the compound `C=C(C)CC1=C(C(=S)NCCO[Si](C)(C)C(C)(C)C)C(OCC)(OCC)C1=O`, the TGI is 34.4 µM in the test with EKVX NSCLC; 36.9 µM with A549 NSCLC; 33.8 µM in the test with ACHN renal; 34.3 µM in the test with OVCAR-4 ovarian; 47.4 µM in the test with SF-268 CNS; more than 100 µM in the test on MOLT-4 leukemia. The compound further returned a TGI in the test on HOP-62 NSCLC of 34.3 µM.
On to `C=C1c2nc3ccccc3n2C=C(c2ccc(Cl)cc2)N1c1ccccc1`, for which the TGI with EKVX NSCLC was 45.2 µM; in the test with A549 NSCLC it was 27.1 µM; in the test with ACHN renal, 24.8 µM; with OVCAR-4 ovarian it was 29.9 µM; with MOLT-4 leukemia it was more than 100 µM; in the test on HCC-2998 colon, 26 µM. Moreover, the results for the TGI in the test with OVCAR-3 ovarian and with NCI-H460 lung were 38.5 µM and 24.9 µM, respectively.
Regarding `CC[C@@]1(O)C(=O)OCc2c1cc1n(c2=O)Cc2c-1nc1ccccc1c2/C=N\NC(=O)C(N)CS` (stereo partly drawn), the TGI in the test on EKVX NSCLC was more than 100 µM; with A549 NSCLC it was more than 100 µM; in the test with OVCAR-4 ovarian it was more than 100 µM; in the test on SF-268 CNS it was more than 100 µM; in the test with MOLT-4 leukemia, 2.07 µM; in the test on HCC-2998 colon, more than 100 µM. For the same compound, the TGI in the test with OVCAR-3 ovarian was more than 100 µM; with NCI-H460 lung, more than 43.6 µM.
As for `C=C1C(=O)[C@]23[C@H](O)[C@H]1CC[C@H]2[C@@]12CO[C@@]3(O)C[C@@H]1C(C)(C)CC[C@@H]2O`, the TGI is more than 25 µM with EKVX NSCLC; more than 25 µM with A549 NSCLC; 18.9 µM with ACHN renal; more than 25 µM in the test on OVCAR-4 ovarian; 20.9 µM in the test on SF-268 CNS; more than 25 µM in the test on MOLT-4 leukemia. The TGI in the test on HOP-62 NSCLC is more than 25 µM; with HCC-2998 colon it was 23.4 µM; in the test with OVCAR-3 ovarian, more than 25 µM.
With `COC(=O)C[C@H](COCc1ccccc1)NC(=O)C[C@H](COCc1ccccc1)NC(=O)C[C@H](COCc1ccccc1)NC(=O)OC(C)(C)C`, the TGI was more than 100 µM in the test with EKVX NSCLC; more than 100 µM in the test with A549 NSCLC; more than 100 µM in the test on ACHN renal; 17.4 µM in the test with OVCAR-4 ovarian; more than 100 µM in the test on SF-268 CNS; more than 100 µM in the test on MOLT-4 leukemia. In addition, the TGI in the test on HOP-62 NSCLC is 48 µM; in the test on OVCAR-3 ovarian it was more than 100 µM.
Regarding `c1ccc(C(CCN2CCCC2)c2ccccn2)cc1` (stereo not drawn), the TGI with EKVX NSCLC, with A549 NSCLC, in the test on ACHN renal, in the test with OVCAR-4 ovarian, in the test with SF-268 CNS and with HOP-62 NSCLC was more than 100 µM in each case. In addition, the TGI in the test with HCC-2998 colon and with NCI-H460 lung was more than 100 µM throughout.
Take `CC(=O)c1ccc(NC(=O)/C(=N\NC(N)=O)C(C#N)CC(C)(C)C=O)cc1` (stereo not drawn): the TGI with EKVX NSCLC, with A549 NSCLC, in the test with ACHN renal, in the test with OVCAR-4 ovarian, in the test on SF-268 CNS and in the test with MOLT-4 leukemia was more than 100 µM in each case. The TGI with HOP-62 NSCLC, in the test on HCC-2998 colon and in the test on NCI-H460 lung was more than 100 µM throughout.
On to `Cc1ccnc(NC(=S)Nc2ccccc2Cl)c1`, for which the TGI in the test on EKVX NSCLC, with A549 NSCLC, with OVCAR-4 ovarian, with SF-268 CNS, with MOLT-4 leukemia and in the test with HOP-62 NSCLC was more than 100 µM in each case. For the same compound, the TGI with OVCAR-3 ovarian and in the test with NCI-H460 lung was more than 100 µM each time.
As to `CC(=O)c1ccc2c(c1)oc(=O)n2CCN(C)C`, the TGI in the test on EKVX NSCLC, in the test on ACHN renal, in the test with SF-268 CNS, in the test on MOLT-4 leukemia, in the test with HOP-62 NSCLC and in the test with OVCAR-3 ovarian was more than 100 µM each time. In addition, the TGI in the test with NCI-H460 lung was more than 100 µM.
`Cc1cc(S(=O)(=O)O)ccc1N=Nc1ccc(N=Nc2c(O)ccc3ccccc23)c(C)c1`: the TGI in the test with EKVX NSCLC, in the test on A549 NSCLC, in the test with ACHN renal, in the test with OVCAR-4 ovarian, in the test on SF-268 CNS and in the test with MOLT-4 leukemia was more than 100 µM throughout. The TGI with HOP-62 NSCLC and in the test with OVCAR-3 ovarian was more than 100 µM each time.
Regarding `O=C1C=CC2(O[C@@H](Cc3ccccc3)[C@H](Cc3ccccc3)O2)C(SC(=O)c2ccccc2)C1` (stereo partly drawn), the TGI with A549 NSCLC stood at 16.1 µM; in the test on ACHN renal, 2.43 µM; in the test with OVCAR-4 ovarian, 4.4 µM; in the test on SF-268 CNS, 2.44 µM; in the test with MOLT-4 leukemia, 0.651 µM; in the test on HOP-62 NSCLC, 2.68 µM. Besides, the TGI amounted to 2.24 µM in the test on OVCAR-3 ovarian and 9.56 µM in the test on NCI-H460 lung.
In the case of `CC(O)(c1ccccc1)c1nccc2ccccc12` (stereo not drawn), the TGI in the test on A549 NSCLC, in the test with ACHN renal, in the test with OVCAR-4 ovarian, in the test on SF-268 CNS, in the test on MOLT-4 leukemia and in the test on HOP-62 NSCLC was more than 100 µM each time. Also, the TGI with HCC-2998 colon, with OVCAR-3 ovarian and in the test with NCI-H460 lung was more than 100 µM in each case.
For the compound `N=C(N)n1[nH]c2c(c1=O)CCC2`, the TGI with A549 NSCLC, with ACHN renal, in the test with OVCAR-4 ovarian, in the test with SF-268 CNS, in the test with HOP-62 NSCLC and in the test with HCC-2998 colon was more than 100 µM throughout. Also, the TGI with OVCAR-3 ovarian and in the test on NCI-H460 lung was more than 100 µM in each case.
`FC1CCN(C2(c3cccs3)CCCCC2)CC1`: the TGI with EKVX NSCLC, in the test with A549 NSCLC, with ACHN renal, in the test with OVCAR-4 ovarian, with MOLT-4 leukemia and in the test on HOP-62 NSCLC was more than 100 µM in each case. For the same compound, the TGI in the test on HCC-2998 colon, in the test with OVCAR-3 ovarian and with NCI-H460 lung was more than 100 µM throughout.

The record behind these values is PubChem BioAssay (NCI).
